From US6608086B2, “Dihydropyridines and new uses thereof” (Synaptic Pharmaceutical Corporation, priority 1993, dated 2003)
Counter-ions that a name gives are not always drawn.

target: T1, α1B Human Adrenergic Receptor (Homo sapiens, UniProt P35368); assay: Radioligand binding, [3H]prazosin, cloned human α1B adrenergic receptor; details: cloned human receptor in LM(tk-) cell membranes, SEM and n in lines below
T1 construct: The entire coding region of α1B (1563 bp); expressed in transfected cells
T1 sequence (P35368 1-520): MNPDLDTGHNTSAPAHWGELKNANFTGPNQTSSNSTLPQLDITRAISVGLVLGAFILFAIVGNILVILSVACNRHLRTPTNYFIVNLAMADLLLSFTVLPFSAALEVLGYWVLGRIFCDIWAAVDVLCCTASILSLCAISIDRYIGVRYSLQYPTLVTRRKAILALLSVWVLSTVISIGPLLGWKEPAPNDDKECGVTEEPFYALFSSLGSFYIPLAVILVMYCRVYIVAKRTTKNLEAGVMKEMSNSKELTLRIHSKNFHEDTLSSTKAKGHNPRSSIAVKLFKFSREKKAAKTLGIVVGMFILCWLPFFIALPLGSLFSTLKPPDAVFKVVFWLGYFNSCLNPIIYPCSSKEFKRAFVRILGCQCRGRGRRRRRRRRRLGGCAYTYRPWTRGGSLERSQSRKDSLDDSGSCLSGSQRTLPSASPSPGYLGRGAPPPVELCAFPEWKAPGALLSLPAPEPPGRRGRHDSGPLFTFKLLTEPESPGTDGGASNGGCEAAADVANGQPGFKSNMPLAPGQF
Summary of the method: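 Membranes from stably transfected LM(tk−) cells, resuspended in 50 mM Tris-HCl, 1 mM MgCl2, 0.1% ascorbic acid, pH 7.5, were incubated with 0.5 nM [3H]prazosin for 20 min at 37° C. Nonspecific binding defined with 10 μM phentolamine; bound ligand separated by GF/B filtration.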

“5-Acetyl-1,4-dihydro-2,6-dimethyl-4-(4-nitrophenyl)-3-[3-(4,4-diphenylpiperidin-1-yl)propoxy]carbonylpyridine hydrochloride hemihydrate [Example 49]” and `CC(=O)C1=C(C)NC(C)=C(C(=O)NCCCN2CCC(c3ccccc3)(c3ccccc3)CC2)C1c1ccc([N+](=O)[O-])cc1` (stereo not drawn) [Example 47, 5-Acetyl-1,4-dihydro-2,6-dimethyl-4-(4-nitrophenyl)-3-{N-[3-(4,4-diphenylpiperidin-1-yl)propyl]}carboxamidopyridine] are within 0.2 log units of each other in “pKi alpha-1 1b” value: 6.72 for the first, 6.58 for the second.

First: COC(=O)C1=C(C)NC(C)=C(C(=O)NCCCCN2CCC(c3ccccc3)(c3ccccc3)CC2)C1c1ccc([N+](=O)[O-])cc1.Cl.O (stereo not drawn) [Example 53, 1,4-Dihydro-3-methoxycarbonyl-2,6-dimethyl-4-(4-nitrophenyl)-5-{N-[4-(4,4-diphenylpiperidin-1-yl)butyl]}carboxamidopyridine hydrochloride hydrate]
Second: CC1=C(C(N)=O)C(c2ccc([N+](=O)[O-])cc2)C(C(=O)NC2CCN(Cc3ccccc3)CC2)=C(c2ccoc2)N1.Cl.O (stereo not drawn) [Example 66]
The “pKi alpha-1 1b” value of the first is higher: 6.87 for the first, 5.36 for the second.

Compared with `COc1cc2c(c(OC)c1)CCN(CCCNC(=O)C1=C(c3ccoc3)NC(C)=C(C(N)=O)C1c1ccc([N+](=O)[O-])cc1)C2.Cl.O` (stereo not drawn) [Example 67], `CCC1=C(C(=O)NCCCN2CCc3cc(OC)c(OC)cc3C2)C(c2ccc([N+](=O)[O-])cc2)C(C(N)=O)=C(C)N1.Cl.O` (stereo not drawn) [Example 76, 5-Carboxamido-2-ethyl-1,4-dihydro-3-(N-(3-(1,2,3,4-tetrahydro-6,7-dimethoxyisoquinolin-2-yl)propyl)) carboxamido-6-methyl-4-(4-nitro)phenylpyridine hydrochloride hydrate] is lower in “pKi alpha-1 1b” value: 6.18 for the first, 5.88 for the second.

`CCC1=C(C(=O)NCCCCN2CCC(c3ccccc3)CC2)C(c2ccc([N+](=O)[O-])cc2)C(C(N)=O)=C(C)N1.Cl.O` (stereo not drawn) [Example 77, 5-Carboxamido-2-ethyl-1,4-dihydro-6-methyl-4-(4-nitro)phenyl-3-(N-(4-(4-phenylpiperidin-1-yl)butyl))carboxamidopyridine hydrochloride hydrate] and `COC(=O)C1=C(C)NC(c2ccccc2)=C(C(=O)NCCCN2CCC(c3ccccc3)CC2)C1c1ccc([N+](=O)[O-])cc1.Cl` (stereo not drawn) [Example 79, 1,4-Dihydro-5-methoxycarbonyl-6-methyl-4-(4-nitro)phenyl-2-phenyl-3-(N-(3-(4-phenylpiperidin-1-yl)propyl)) carboxamidopyridine hydrochloride] are within 0.2 log units of each other in “pKi alpha-1 1b” value: 7.16 for the first, 7.33 for the second.

same assay, conditions: cloned human receptor in LM(tk-) cell membranes, SEM and n in lines below, read-out: pKi alpha-1 1b (converted)

`COC(=O)C1=C(C)NC(C)=C(C(=O)NCCCN2CCC(c3ccccc3)CC2)C1c1ccc([N+](=O)[O-])cc1` (single isomer, unassigned; (+)) [(+)-45, 1,4-Dihydro-3-methoxycarbonyl-2,6-dimethyl-4-(4-nitrophenyl)-5-{N-[3-(4-phenylpiperidin-1-yl)propyl]}carboxamidopyridine hydrochloride hemihydrate] and `COC(=O)C1=C(C)NC(C)=C(C(=O)NCCCCN2CCC(c3ccccc3)CC2)C1c1ccc([N+](=O)[O-])cc1` (stereo not drawn) [Example 3, 1,4-Dihydro-3-methoxycarbonyl-2,6-dimethyl-4-(4-nitrophenyl)-5-{N-[4-(4-phenylpiperidin-1-yl)butyl]}carbozamidopyridine hydrochloride hydrate] are within 1.5-fold of each other in Ki: 57.5 nM for the first, 64.6 nM for the second.

Going from `COC(=O)C1=C(C)NC(C)=C(C(=O)NCCCN2CCC(c3ccccc3)CC2)C1c1ccc([N+](=O)[O-])cc1` (single isomer, unassigned; (-)) [(−)-45, 1,4-Dihydro-3-methoxycarbonyl-2,6-dimethyl-4-(4-nitrophenyl)-5-{N-[3-(4-phenylpiperidin-1-yl)propyl]}carboxamidopyridine hydrochloride hemihydrate] to `CCC1=C(C(=O)NCCCN2CCC(c3ccccc3)CC2)C(c2ccc([N+](=O)[O-])cc2)C(C(=O)OC)=C(C)N1` (stereo not drawn) [Example 74, 2-Ethyl-1,4-dihydro-5-methoxycarbonyl-6-methyl-4-(4-nitro)phenyl-3-(N-(3-(4-phenylpiperidin-1-yl)propyl)) carboxamidopyridine hydrochloride hydrate], the Ki rises from 9.12 nM to 19.1 nM (2.1-fold).

First: COC(=O)C1=C(C)NC(C)=C(C(=O)OCCCN2CCC(c3ccccc3)CC2)C1c1ccc([N+](=O)[O-])cc1 (stereo not drawn) [Example 48, 1,4-Dihydro-5-methazycarbonyl-2,6-dimethyl-4-(4-nitrophenyl)-3-[3-(4-phenylpiperidin-1-yl)propoxy]}carbonylpyridine hydrochloride hydrate]
Second: COC(=O)C1=C(C)NC(c2ccoc2)=C(C(=O)NCCCN2CCC(c3ccccc3)CC2)C1c1ccc([N+](=O)[O-])cc1 (stereo not drawn) [Example 65, 2-(Furan-3-yl)-1,4-dihydro-5-methoxycarbonyl-6-methyl-4-(4-nitrophenyl)-5-{N-[3-(4-phenylpiperidin-1-yl)propyl]}carboxamidopyridine hydrochloride hydrate]
The Ki of the first is 22-fold lower: 2.63 nM for the first, 57.5 nM for the second.

First: COC(=O)C1=C(C)NC(C)=C(C(=O)OCCCN2CCCCC2)C1c1ccc([N+](=O)[O-])cc1 (stereo not drawn) [Example 50, 1,4-Dihydro-5-methoxycarbonyl-2,6-dimethyl-4-(4-nitrophenyl)-3-[3-(piperidin-1-yl)propoxy]carbonylpyridine hydrochloride etherate]
Second: COC(=O)C1=C(C)NC(C)=C(C(=O)NCCCN2CCCCC2)C1c1ccc([N+](=O)[O-])cc1 (stereo not drawn) [Example 51, 1,4-Dihydro-3-methoxycarbonyl-2,6-dimethyl-4-(4-nitrophenyl)-5-{N-[3-(piperidin-1-yl)propyl]}carboxamidopyridine hydrochloride etherate]
The Ki of the first is 1.7-fold lower: 3020 nM for the first, 5010 nM for the second.

Compared with `COC(=O)C1=C(C)NC(C)=C(C(=O)NCCCN2CCc3cc(OC)c(OC)cc3C2)C1c1ccc([N+](=O)[O-])cc1` (stereo not drawn) [Example 57, 1,4-Dihydro-3-methoxycarbonyl-5-{N-[3-(1,2,3,4-tetrahydro-6,7-dimethoxyisoquinolin-2-yl)propyl]}carboxamido-2,6-dimethyl-4-(4-nitrophenyl)pyridine hydrochloride hydrate], `COc1cc2c(cc1OC)CN(CCCNC(=O)C1=C(C)NC(C)=C(C(N)=O)C1c1ccc([N+](=O)[O-])cc1)CC2` (stereo not drawn) [Example 58, 5-Carboxamido-1,4-dihydro-3-{N-[3-(1,2,3,4-tetrahydro-6,7-dimethoxyisoquinolin-2-yl)propyl]}carboxamido-2,6-dimethyl-4-(4-nitrophenyl)pyridine hydrochloride] is 1.9-fold higher in Ki: 1230 nM for the first, 2290 nM for the second.

`CCC1=C(C(=O)NC2CCN(Cc3ccccc3)CC2)C(c2ccc([N+](=O)[O-])cc2)C(C(=O)OC)=C(C)N1` (stereo not drawn) [Example 75, 2-Ethyl-1,4-dihydro-5-methoxycarbonyl-6-methyl-4-(4-nitro)phenyl-3-(N-(N-phenylmethyl)piperidin-4-yl)carboxamidopyridine hydrochloride] showed a Ki of 3890 nM.

same assay, conditions: cloned human α1B receptor, LM(tk−) cell membranes

Compared with `CNC(=O)C1=C(C)NC(C)=C(C(=O)NCCCN2CCC(c3ccccc3)(c3ccccc3)CC2)C1c1ccc([N+](=O)[O-])cc1` (racemic) [(±)-119, 1,4-Dihydro-2,6-dimethyl-5-(N-Methyl) carboxamido-4-(4-nitrophenyl)-3-{N-[3-(4,4-diphenylpiperidin-1-yl)propyl]}carboxamidopyridine], `CCOC(=O)C1=C(CNCCCN2CCC(c3ccccc3)(c3ccccc3)CC2)NC(C)=C(C(=O)OC)C1c1ccc([N+](=O)[O-])cc1.Cl.O` (stereo not drawn) [Example 90, 3-Ethoxycarbonyl-1,4-dihydro-5-methoxycarbonyl-6-methyl-4-(4-nitro)phenyl-2-(N-(3-(4,4,-diphenylpiperidin-1-yl)propyl)amino)methylpyridine, hydrochloride hydrate] is higher in “pKi alpha-1 1b” value: 6.38 for the first, 6.87 for the second.

Compared with `COC(=O)C1=C(C)NC2=C(C(=O)N(CCCN3CCC(c4ccccc4)(c4ccccc4)CC3)C2)C1c1ccc([N+](=O)[O-])cc1.Cl.O` (stereo not drawn) [Example 91, 1,4,7,7-Tetrahydro-3-methoxycarbonyl-6-methyl-5-oxo-4-(4-nitrophenyl)-6-(3-(4,4-diphenylpiperidin-1-yl)) propylpyrrolo[3,4-b]pyridine, hydrochloride hydrate], `CCC1=C(C(N)=O)C(c2ccc([N+](=O)[O-])cc2)C(C(=O)NCCCN2CCC(O)(c3ccccc3)CC2)=CN1CC.Cl.O` (stereo not drawn) [Example 101, 5-Carboxamido-1,6-diethyl-1,4-dihydro-3-{N-[3-(4-hydroxy-4-phenylpiperidin-1-yl)propyl]}carboxamido-4-(4-nitrophenyl)pyridine hydrochloride hydrate] is lower in “pKi alpha-1 1b” value: 6.54 for the first, 6.22 for the second.

same assay, conditions: cloned human α1B receptor, LM(tk−) cell membranes, read-out: pKi alpha-1 1b (converted)

With `CCC1=C(C(N)=O)C(c2ccc([N+](=O)[O-])cc2)C(C(=O)NCCCN2CCN(c3ccccc3)CC2)=C(CC)N1` (stereo not drawn) [Example 104, 5-Carboxamido-2,6-diethyl-1,4-dihydro-4-(4-nitrophenyl)-3-{N-[3-(4-phenylpiperazin-1-yl)propyl]}carboxamido-pyridine hydrochloride hydrate] the Ki was 34.7 nM.
